Laboratory results: publication PMC7221154, “Cloning and Expression of Cockroach α7 Nicotinic Acetylcholine Receptor Subunit” (Frontiers in Physiology, 2020)

Experiments:
Pameα7 [1] = target: T1, Pameα7 (Periplaneta americana, UniProt A0A5P8U3L1); assay: two-electrode voltage clamp, Xenopus oocytes, agonist currents; type: cell-based; details: cDNA-injected oocytes without RIC-3, -80 mV, 0.5 μM atropine, 20-22 °C, normalized to 10 mM nicotine, unreliable (native currents at 5 and 10 mM nicotine)
T1 construct: cDNA in pGEM-HEJUEL injected in Xenopus laevis oocytes; homomeric receptor (pentamer by known biology)
T1 sequence (A0A5P8U3L1 42-518): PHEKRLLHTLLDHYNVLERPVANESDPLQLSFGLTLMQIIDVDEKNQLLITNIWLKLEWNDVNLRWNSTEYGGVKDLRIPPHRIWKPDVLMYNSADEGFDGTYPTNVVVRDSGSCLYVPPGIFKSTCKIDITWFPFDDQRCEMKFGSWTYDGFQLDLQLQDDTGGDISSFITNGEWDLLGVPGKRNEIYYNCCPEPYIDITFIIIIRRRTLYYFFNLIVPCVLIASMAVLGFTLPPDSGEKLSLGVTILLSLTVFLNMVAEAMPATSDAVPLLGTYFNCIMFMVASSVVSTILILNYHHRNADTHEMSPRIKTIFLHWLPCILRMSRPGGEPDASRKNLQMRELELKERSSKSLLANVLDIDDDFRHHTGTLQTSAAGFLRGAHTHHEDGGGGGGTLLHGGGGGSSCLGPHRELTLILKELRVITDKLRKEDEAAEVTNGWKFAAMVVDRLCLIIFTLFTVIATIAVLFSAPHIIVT

Pameα7 [2] = target: T1, Pameα7; assay: as above; type: cell-based; details: 10 mM, -80 mV, 0.5 μM atropine, EC50 could not be calculated, unreliable (low currents)

With `CN1CCC[C@H]1c1cccnc1` [nicotine] the EC50 (Pameα7 [1]) was 790 µM.

In the case of `CC(=O)OCC[N+](C)(C)C` [acetylcholine], the “two-electrode voltage clamp, Xenopus oocytes, agonist currents” value (Pameα7 [2]) is reported as “ACh and nicotine induced inward currents”.
